Columns and labels:
[1] = Stability HPLC data summary of Form A1 of valbenazine oxalate (appearance, assay, HPLC, chiral HPLC, moisture on storage); type: physicochemical; details: 2~8° C.; for Appearance: double PE bags sealed in laminated aluminum foil bag
Text: Stability Data of Form A1 of Valbenazine Oxalate [table]

[2] = Stability of valbenazine salts, general statement

valbenazine oxalate [Form A1 of valbenazine oxalate]
Assay (Anhydrous) ([1]; 0 months): 100.1%
Chiral HPLC Chiral imp-1 ([1]; 0 months): 0.01%
Chiral HPLC Chiral imp-2 ([1]; 0 months): 0.04%
Chiral HPLC Chiral imp-3 ([1]; 0 months): 0.03%
Chiral HPLC Valbenazine ([1]; 0 months): 99.93%
HPLC Imp-1 (LSI) ([1]; 0 months): 0.03%
HPLC Imp-2 ([1]; 0 months): 0.01%
HPLC Imp-3 ([1]; 0 months): 0.02%
HPLC Imp-4 ([1]; 0 months): 0.02%
HPLC Imp-5 ([1]; 0 months): 0.01%
HPLC Imp-7 ([1]; 0 months): 0.01%
HPLC Valbenazine ([1]; 0 months): 99.81%
Moisture ([1]; 0 months): 0.12%
Assay (Anhydrous) ([1]; 0.5 months): 100.8%
Chiral HPLC Chiral imp-1 ([1]; 0.5 months): 0.01%
Chiral HPLC Chiral imp-2 ([1]; 0.5 months): 0.04%
Chiral HPLC Chiral imp-3 ([1]; 0.5 months): 0.03%
Chiral HPLC Valbenazine ([1]; 0.5 months): 99.93%
HPLC Imp-1 (LSI) ([1]; 0.5 months): 0.03%
HPLC Imp-3 ([1]; 0.5 months): 0.03%
HPLC Imp-5 ([1]; 0.5 months): 0.01%
HPLC Imp-7 ([1]; 0.5 months): 0.02%
HPLC Valbenazine ([1]; 0.5 months): 99.84%
Moisture ([1]; 0.5 months): 0.2%
Assay (Anhydrous) ([1]; 1 months): 101.0%
Chiral HPLC Chiral imp-1 ([1]; 1 months): 0.01%
Chiral HPLC Chiral imp-2 ([1]; 1 months): 0.04%
Chiral HPLC Valbenazine ([1]; 1 months): 99.95%
HPLC Imp-1 (LSI) ([1]; 1 months): 0.03%
HPLC Imp-2 ([1]; 1 months): 0.01%
HPLC Imp-3 ([1]; 1 months): 0.02%
HPLC Imp-4 ([1]; 1 months): 0.01%
HPLC Imp-5 ([1]; 1 months): 0.01%
HPLC Imp-7 ([1]; 1 months): 0.01%
HPLC Valbenazine ([1]; 1 months): 99.84%
Moisture ([1]; 1 months): 0.19%
Assay (Anhydrous) ([1]; 3 months): 100.33%
Chiral HPLC Chiral imp-1 ([1]; 3 months): 0.01%
Chiral HPLC Chiral imp-2 ([1]; 3 months): 0.07%
Chiral HPLC Chiral imp-3 ([1]; 3 months): 0.02%
Chiral HPLC Valbenazine ([1]; 3 months): 99.91%
HPLC Imp-1 (LSI) ([1]; 3 months): 0.04%
HPLC Imp-2 ([1]; 3 months): 0.02%
HPLC Imp-3 ([1]; 3 months): 0.04%
HPLC Imp-4 ([1]; 3 months): 0.03%
HPLC Imp-5 ([1]; 3 months): 0.02%
HPLC Imp-7 ([1]; 3 months): 0.01%
HPLC Valbenazine ([1]; 3 months): 99.78%
Moisture ([1]; 3 months): 0.4%
Appearance ([1]; 0 months): White
Appearance ([1]; 0.5 months): White solid
Appearance ([1]; 1 months): White solid
Appearance ([1]; 3 months): White solid
stability (in words) [2]: good stability
